Data published in US11266609B2, “Bacitracin and/or daptomycin combined with cannabidiol for treatment of bacterial infections” (priority 2017, dated 2022).
Converted amounts (≈) assume the structure as drawn.

Legend:
MRSA USA300 FPR3757 = test: microbe, parasite or virus in culture; assay type: cell-based, Staphylococcus aureus; settings: for FIC Index: WT USA300, combination of cannabidiol with the respective antibiotic, synergy <= 0.5, no interaction 0.5-4.0, antagonism > 4
Procedure: (§1) The resistant bacterium MRSA USA300 FPR3757 (USA300) was the main used bacterium throughout this study. MRSA was grown in Brain Heart Infusion (BHI) or Müeller Hinton (MH) media on plate or in liquid cultures with agitation at 37° C.
(§2) An ON culture was made by inoculating a bacterial colony in either 5 mL of MH or BHI and incubating at 37° C. with agitation. The antibiotic of interest was added to a row of a sterile 96-well plate (VWR) and a serial dilution was made down the rows containing 50 μL of MH or BHI media in each well, resulting in 2-fold dilution for each row. The ON culture was diluted to OD625 at approximately 1.0 followed by a 1:100 dilution to approximately OD625=0.01 of which 50 μL was added to each well to a final volume of 100 μL. The 96-well plate was incubated at 37° C. with shaking at 225 rpm for approximately 18-24 hours. Presence and absence of growth were determined by visual appearance.
B) The other screen was based on fractional inhibitory concentration (FIC) index.

MRSA USA300 = test: Micro dilution growth experiments using oCelloScope, CBD combined with antibiotics (FIG. 1); assay type: cell-based, Staphylococcus aureus; settings: for synergistic potential in growth curves: combination with CBD 1-2 μg/mL, bacitracin 16, daptomycin 4, tetracycline 16, fosfomycin 16, dicloxacillin 0.0625, chlorhexidine 0.25, vancomycin 0.5 μg/mL (FIG. 1)
Procedure: BCA: Background corrected absorption. ? Growth control, ? CBD, -▴- Antibiotic, ? Combination.
as §1
An ON culture was made by inoculating a bacterial colony in either 5 mL of MH or BHI at incubated at 37° C. with agitation. 25 μL of specific concentrations of the antibiotic and cannabinoid to be tested was added to the desired wells of a sterile 96-well plate (Thermo Scientific). 25 μL of MH or BHI media was added to the wells only containing one of the two compounds tested. The bacterial ON culture was diluted to a final OD600 nm of 0.005 and 50 μL was dispensed into each well to a final volume of 100 μL. To decrease evaporation, 2 mL of pre-heated water was added to the corners of the 96-well plate containing cavities. The plate was placed in the oCelloScope inside an incubator at 37° C. Illumination level and focus was adjusted for each well and the growth was measured for approximately 25 hours. Measurements were performed every half an hour for the first half of the time and every hour for the last half using the UniExplorer software. Data retrieved was given in Background corrected absorption (BCA), formerly known as pixel histogram summation (PHS), an algorithm enabling determination of bacterial growth kinetics resulting from images taken with the oCelloScope camera.
A) A screen was performed using the Philips oCelloScope enabling measurements of bacterial growth in presence or absence of either cannabidiol alone or in combination with an antibiotic or antimicrobial, through a 3D scanning system in 96-well plates.

E. faecalis (13-327129) = test: microbe, parasite or virus in culture; assay type: cell-based, Enterococcus faecalis; settings: Enterococcus faecalis; E. faecalis (13-327129); read-out: MIC
Procedure: (§3) Additional bacteria Enterococcus faecalis (13-327129), Enterococcus faecalis (16-7418), Methicillin-resistant Staphylococcus epidermidis (933010 3F-16 b4), Listeria monocytogenes EGD, Pseudomonas aeruginosa (PA01), Salmonella typhimurium (14028), Klepsiella pneumoniae (CAS55), Vibrio cholerae (A1522), and Escherichia coli (UTI89) were either grown in BHI or Lysogeny broth (LB) media.
as §2, with “appearance. FIC index was calculated as follows (Alam M T et al. Antibacterial activity of different organic extracts of Achyranthes aspera and Cassia alata. J Sci Res. 2009).” for “appearance.”
(§4) To study the bacterial spectrum of the combination, CBD and bacitracin growth measurements of other Gram-positive bacteria tests on Enterococcus faecalis, an MRSE strain and a strain of Listeria monocytogenes were performed as described in Example 1.
(§5) The MIC for bacitracin and CBD and the respective FIC values are visualized in table 2 for the Gram-positive bacteria and are calculated based on two biological replicates.

E. faecalis (16-7418) = test: microbe, parasite or virus in culture; assay type: cell-based, Enterococcus faecalis; settings: Enterococcus faecalis; E. faecalis (16-7418); read-out: MIC
Procedure: as §3
as §2, with “appearance. FIC index was calculated as follows (Alam M T et al. Antibacterial activity of different organic extracts of Achyranthes aspera and Cassia alata. J Sci Res. 2009).” for “appearance.”
as §4, §5

MRSE (933010 3F-16 b4) = test: microbe, parasite or virus in culture; assay type: cell-based, Methicillin-resistant Staphylococcus epidermidis; settings: Staphylococcus epidermidis, MRSE
Procedure: as §3
as §2, with “appearance. FIC index was calculated as follows (Alam M T et al. Antibacterial activity of different organic extracts of Achyranthes aspera and Cassia alata. J Sci Res. 2009).” for “appearance.”
as §4, §5

L. monocytogenes EGD = test: microbe, parasite or virus in culture; assay type: cell-based, Listeria monocytogenes; settings: Listeria monocytogenes; L. monocytogenes EGD; read-out: MIC
Procedure: as §3
as §2, with “appearance. FIC index was calculated as follows (Alam M T et al. Antibacterial activity of different organic extracts of Achyranthes aspera and Cassia alata. J Sci Res. 2009).” for “appearance.”
as §4, §5

Escherichia coli (UTI89) = test: MIC, Gram-negative bacteria; assay type: cell-based; settings: above tested concentrations
Procedure: as §3
as §2, with “appearance. FIC index was calculated as follows (Alam M T et al. Antibacterial activity of different organic extracts of Achyranthes aspera and Cassia alata. J Sci Res. 2009).” for “appearance.”
(§6) To further assess the spectrum of use for the combination of CBD and bacitracin, growth of Gram-negative bacteria upon treatment was measured as well as described in Example 1.
(§7) The Gram-negative bacteria tested were strains of Pseudomonas aeruginosa, Salmonella typhimurium, Klepsiella pneumoniae, Vibrio cholera, and Escherichia coli. MIC for CBD and bacitracin in the Gram-negative bacteria are visualized in table 3, and were both above tested concentrations.

[1] = tested on: Klepsiella pneumoniae (CAS55); test: MIC, Gram-negative bacteria; assay type: cell-based; settings: above tested concentrations
Procedure: as §3
as §2, with “appearance. FIC index was calculated as follows (Alam M T et al. Antibacterial activity of different organic extracts of Achyranthes aspera and Cassia alata. J Sci Res. 2009).” for “appearance.”
as §6, §7

[2] = tested on: Pseudomonas aeruginosa (PA01); test: MIC, Gram-negative bacteria; assay type: cell-based; settings: above tested concentrations
Procedure: as §3
as §2, with “appearance. FIC index was calculated as follows (Alam M T et al. Antibacterial activity of different organic extracts of Achyranthes aspera and Cassia alata. J Sci Res. 2009).” for “appearance.”
as §6, §7

[3] = tested on: Salmonella typhimurium (14028); test: MIC, Gram-negative bacteria; assay type: cell-based; settings: Salmonella enterica, above tested concentrations
Procedure: as §3
as §2, with “appearance. FIC index was calculated as follows (Alam M T et al. Antibacterial activity of different organic extracts of Achyranthes aspera and Cassia alata. J Sci Res. 2009).” for “appearance.”
as §6, §7

Vibrio cholerae (A1522) = test: microbe, parasite or virus in culture; assay type: cell-based; settings: Vibrio cholerae
Procedure: as §3
as §2, with “The 96-well plate was incubated at 37° C. with shaking at 225 rpm for approximately 18-24 hours.” left out, “appearance. FIC index was calculated as follows (Alam M T et al. Antibacterial activity of different organic extracts of Achyranthes aspera and Cassia alata. J Sci Res. 2009).” for “appearance.”
To further assess the spectrum of use for the combination of CBD and bacitracin, growth of Gram-negative bacteria upon treatment was measured as well as described in Example 1. […]

[4] = USA300, Table 4, unit not given

Structure (SMILES)	FIC index (with bacitracin) (MRSA USA300 FPR3757; USA300)	FIC index (with daptomycin) (MRSA USA300 FPR3757; USA300)	MIC (MRSA USA300 FPR3757; [4])	MIC (MRSA USA300 FPR3757; Staphylococcus aureus) [mg/L]	FIC Index (MRSA USA300 FPR3757)	synergistic potential in growth curves (MRSA USA300)	also measured
CCCCCc1cc(O)c2c(c1)OC(C)(CCC=C(C)C)C=C2 (centres unmarked) [Cannabichromene (CBC), Cannabichromene]	0.63	0.63	4	–	–	–	–
[H]/N=C(\N/C(=N/[H])NCCCCCCNC(=N)NC(=N)Nc1ccc(Cl)cc1)Nc1ccc(Cl)cc1 [Chlorhexidine]	–	–	–	1 to 2 (≈ 1.98 to 3.96 µM)	1	no synergistic potential	–
Cc1onc(-c2c(Cl)cccc2Cl)c1C(=O)N[C@@H]1C(=O)N2[C@@H]1SC(C)(C)[C@@H]2C(=O)O [Dicloxacillin]	–	–	–	0.25 (≈ 0.532 µM)	2	no synergistic potential	–
CCCCCc1cc(O)c(C/C=C(\C)CCC=C(C)C)c(O)c1 [Cannabigerol (CBG), Cannabigerol]	0.88	1.0	4	–	–	–	–
C=C(C)[C@@H]1CCC(C)=C[C@H]1c1c(O)cc(CCCCC)cc1O [Cannabidiol (CBD), Cannabidiol]	–	–	–	4 (≈ 12.7 µM)	–	–	MIC (MRSA USA300 FPR3757; MRSA USA300 FPR3757, Table 2, two biological replicates): 4 mg/L (≈ 12.7 µM); MIC (E. faecalis (13-327129)): 16 mg/L; MIC (E. faecalis (16-7418)): 16 mg/L; MIC (MRSE (933010 3F-16 b4)): 4 mg/L; MIC (L. monocytogenes EGD): 4 mg/L; MIC (Escherichia coli (UTI89)): > 128 mg/L; MIC [1]: > 128 mg/L; MIC [2]: > 128 mg/L; MIC [3]: > 128 mg/L; MIC (Vibrio cholerae (A1522)): > 128 mg/L
C[C@@H]1O[C@@H]1P(=O)(O)O [Fosfomycin]	–	–	–	32 (≈ 232 µM)	–	to some degree	synergistic/antagonistic potential in growth curves, lower concentration (MRSA USA300; combination with CBD 1 μg/mL, fosfomycin 8 μg/mL (FIG. 1E)): antagonistic potential
